Columns and labels:
[1] = tested on: male or female ICR mice; assay: 30-day repeated oral administration: body weight and histopathology; format: in vivo; conditions: 10, 100 or 1000 µg/kg daily p.o. for 30 days
Description: After dissolving 24R,25-(OH)₂-D₃, at a prescribed concentration, into the triglyceride of a fatty acid of 8 to 10 carbon atoms containing 1 % of ethanol, the solution was forcibly and orally administered to each of the three groups of the male or female ICR mice continuously for 30 days at a daily dose of 10, 100 or 1000 µg/kg.
The examined organs are as follows: brain, heart, lung, liver, kidney, adrenal, spleen, pancreas, thyroid, hypophysis, thymus, mesentric lymph node, testis, ovary, uterus, stomach, small intestines (jejunum, ileum and duodenum), large intestines (colon and cecum), eyeball, submandibular gland, urinary bladder, backskin, muscle, sternum, marrow of sternum, femur and marrow of femur.

[2] = tested on: renal calculus; assay: Inhibition of formation of renal calculus in model rats (ethylene glycol + 1α-hydroxycholecarciferol); format: in vivo, Wistar rats; conditions: 10 µg/kg/1 ml/day p.o., four weeks
Description: As the test animals for renal calculus, the following rats were used.
Twenty male Wistar rats (age of 8 weeks and body weight of about 200 g) were allowed to take a water containing 0.5 % of ethylene glycol freely, and a mixture of 0.5 µg of 1α-hydroxycholecarciferol and 0.1 ml of triglyceride of a fatty acid of 8 to 10 carbon atoms was forcibly and orally administered by a stomach tube every other day for four weeks, thereafter being used as the test animals.
24R,25-(OH)₂-D₃ in the triglyceride of a fatty acid of 8 to 10 carbon atoms containing 2 % of ethanol was forcibly and orally administered to each of the test animals at a dose of 10µg/kg/1 ml/day by a stomach tube, and to each animals of the control group, the triglyceride of a fatty acid of 8 to 10 carbon atoms was administered in the same manner as above.
The animals were slaughtered after four weeks from the first administration, and the kidney of the animal was extirpated therefrom after the exsanguination and immediately photographed by soft X-ray. Furhter the cross section of the extirpated kidney containing papilla was observed by naked eyes.

[3] = tested on: male ICR mice; assay: Acute oral toxicity, single dose, 2 weeks observation; format: in vivo; conditions: 150 mg/kg p.o.
Description: (§1) After dissolving the present substance in ethanol, the thus formed solution was diluted by a triglyceride of a fatty acid of 8 to 10 carbon atoms so that the concentration of ethanol became 2 %. The thus formed solution was orally (p.o.) administered to each of 10 male ICR mice (age of 6 weeks, body weight of 25±3 g) at dose of 150 mg/kg. […] Accordingly, the acute oral LD₅₀ of the present substance is not less than […] and the present substance can be said to be extremely safe.

[4] = as above; format: in vivo, mice; conditions: mouse, in vivo, po, male ICR mice; read-out: acute oral LD₅₀
Description: as §1

C=C1CC[C@H](O)C/C1=C/C=C1\CCC[C@]2(C)[C@@H]([C@H](C)CC[C@@H](O)C(C)(C)O)CC[C@@H]12 [24R,25-(OH)₂-D₃]
body weight change (growth curve) [1]: any significant difference in the body weight change was not recognized | histopathological examination of organs (hematoxylin·eosin) [1]: any abnormal findings were not particularly recognized | calculi in the pelvis and the papilla of the kidney, observation by naked eyes ([2]; 10 rats, control group: 8 cases among 10 rats): any clear calculus was never recognized | radial deposition of crystals in the renal parenchyma, observation by naked eyes ([2]; 10 rats, remarkably found in the control group): one rat of 10 rats | formation of calculus, soft X-ray photograph of the kidney ([2]; compared with control rats): clear inhibition of the formation of calculus

C=C1CC[C@H](O)C/C1=C/C=C1\CCC[C@]2(C)[C@@H]([C@H](C)CCC(O)C(C)(C)O)CC[C@@H]12 (some centres unmarked) [the present substance, 24,25-dihydroxycholecalciferol]
survival / toxic symptoms ([3]; 10 male ICR mice, observed for 2 weeks): all the animals (10 mice) survived without any abnormality | biochemical examination of the blood, autopsy and histopathological examination versus control animals ([3]; male ICR mice, after slaughter at 2 weeks): no difference was found | LD50 at 336 h [4]: ≥ 100 mg/kg

Reference: patent EP0313703A1, “Use of 24,25-dihydroxycholecalciferole in the treatment of urinary calculus” (KUREHA KAGAKU KOGYO KABUSHIKI KAISHA, priority 1987, dated 1989)
